From patent US11802128B2, “Azetidine and pyrrolidine PARP1 inhibitors and uses thereof” (Xinthera, Inc., priority 2021, dated 2023)

Experiments:
[1] = system: DLD-1 BRCA2(−/−) cells; assay: Cell growth inhibition assay (CellTiter-Glo cell viability, 7 days); assay type: cell-based; conditions: Homo sapiens, 168 h
From the text: (§1) The objective of this study is to evaluate the effect of invention compounds on cell proliferation through the cell viability assay in DLD-1 BRCA2(−/−) and parental isogenic pair and MDA-MB-436 (mutated BRCA1) cell lines. The CellTiter-Glo (CTG) based cell viability assay is designed to determine the number of viable cells in the culture because of compound effect, by quantifying ATP, which indicates the presence of metabolically active cells.
(§2) DLD-1 BRCA2(−/−) and parental isogenic pair were cultured in RPMI 1640 supplemented with 10% fetal bovine serum (FBS), and MDA-MB-436 cells were cultured in DMEM supplemented with 10% FBS. Both are culture at 37° C. with 5% CO2. Invention compounds were distributed to the 384 well plate (Corning, 3764) using Echo acoustic liquid handler to form a 1:3 serially diluted final concentration with top dose of 10 or 30 μM. The cells were seeded into the plate in the density of 50 cells/well (DLD-1 parental), 200 cells/well (DLD-1 BRCA2−/−), or 500 cells/well (MDA-MB-436). After a short spun, the cells were cultured in a well moisturized incubator at 37° C. with 5% CO2 for 7 days without disturbance. The cell viability was measured by CellTiter Glo 2.0 assay kit (Promega, G9243), and growth inhibition rate was calculated and plotted against final compound concentration, and the data were fitted in Xfit to generate IC50.

[2] = system: MDA-MB-436 (mutated BRCA1) cells; assay: as above; assay type: cell-based; conditions: Homo sapiens, 168 h, MDA-MB-436, 7 days
From the text: as §1, §2

With `CCc1cc2ncc(CN3CC[C@H](Oc4ccc(C(=O)NC)nc4)C3)cc2[nH]c1=O` [Example 1, 5-{[(3S)-1-[(7-ethyl-6-oxo-5H-1,5-naphthyridin-3-yl)methyl]pyrrolidin-3-yl]oxy}-N-methylpyridine-2-carboxamide] the EC50 [1] was > 1000 nM and the EC50 [2] was > 1000 nM.
For `CCc1cc2ncc(CN3C[C@@H](F)[C@H](Oc4ccc(C(=O)NC)nc4)C3)cc2[nH]c1=O` [Example 5, 5-{[(3R,4R)-1-[(7-ethyl-6-oxo-5H-1,5-naphthyridin-3-yl)methyl]-4-fluoropyrrolidin-3-yl]oxy}-N-methylpyridine-2-carboxamide], the EC50 [1] was > 1000 nM and the EC50 [2] was > 1000 nM.
With `CCc1cc2ncc(CN3C[C@H](Oc4ccc(C(=O)NC)nc4)[C@@H](F)C3)cc2[nH]c1=O` [Example 6, 5-(((3S,4S)-1-((7-ethyl-6-oxo-5,6-dihydro-1,5-naphthyridin-3-yl)methyl)-4-fluoropyrrolidin-3-yl)oxy)-N-methylpicolinamide] the EC50 [1] was 73 nM and the EC50 [2] was 42 nM.
For `CCc1cc2ncc(CN3C[C@H](F)[C@H](Oc4ccc(C(=O)NC)nc4)C3)cc2[nH]c1=O` [Example 8, 5-{[(3R,4S)-1-[(7-ethyl-6-oxo-5H-1,5-naphthyridin-3-yl)methyl]-4-fluoropyrrolidin-3-yl]oxy}-N-methylpyridine-2-carboxamide], the EC50 [1] was > 1000 nM.
Compound `CCc1cc2ncc(CN3C[C@@H](F)[C@@H](Oc4ccc(C(=O)NC)nc4)C3)cc2[nH]c1=O` [Example 9, 5-(((3S,4R)-1-((7-ethyl-6-oxo-5,6-dihydro-1,5-naphthyridin-3-yl)methyl)-4-fluoropyrrolidin-3-yl)oxy)-N-methylpicolinamide] has an EC50 [1] of 72 nM and an EC50 [2] of 25 nM.
For `CCc1cc2ncc(CN3CC[C@@H](N(C)c4ccc(C(=O)NC)nc4)C3)cc2[nH]c1=O` [Example 11, 5-{[(3R)-1-[(7-ethyl-6-oxo-5H-1,5-naphthyridin-3-yl)methyl]pyrrolidin-3-yl](methyl)amino}-N-methylpyridine-2-carboxamide], the EC50 [1] was 28 nM and the EC50 [2] was 19 nM.
Work on `CCc1cc2ncc(CN3CC[C@@H](Cc4ccc(C(=O)NC)nc4)C3)cc2[nH]c1=O` [Example 13, 5-{[(3R)-1-[(7-ethyl-6-oxo-5H-1,5-naphthyridin-3-yl)methyl]pyrrolidin-3-yl]methyl}-N-methylpyridine-2-carboxamide] yielded an EC50 [1] of 38 nM and an EC50 [2] of 12 nM.
With `CCc1cc2ncc(CN3CC(C)(Oc4ccc(C(=O)NC)nc4)C3)cc2[nH]c1=O` [Example 15, 5-({1-[(7-ethyl-6-oxo-5H-1,5-naphthyridin-3-yl)methyl]-3-methylazetidin-3-yl}oxy)-N-methylpyridine-2-carboxamide] the EC50 [1] was > 1000 nM.
Work on `CNC(=O)c1ccc(OC2CN(Cc3cnc4cc(C5CC5)c(=O)[nH]c4c3)C2)cn1` [Example 16, 5-({1-[(7-cyclopropyl-6-oxo-5H-1,5-naphthyridin-3-yl)methyl]azetidin-3-yl}oxy)-N-methylpyridine-2-carboxamide] yielded an EC50 [1] of 49 nM and an EC50 [2] of 18 nM.
In the case of `CCc1cc2ncc(CN3C[C@@H](Oc4ccc(C(=O)NC)nc4)[C@@H]3C)cc2[nH]c1=O` [Example 18, 5-{[(2S,3R)-1-[(7-ethyl-6-oxo-5H-1,5-naphthyridin-3-yl)methyl]-2-methylazetidin-3-yl]oxy}-N-methylpyridine-2-carboxamide], the EC50 [1] is reported as > 1000 nM and the EC50 [2] is reported as > 1000 nM.
`CCc1cc2ncc(CN3C[C@@H](Oc4ccc(C(=O)NC)nc4)[C@H]3C)cc2[nH]c1=O` [Example 19, 5-{[(2R,3R)-1-[(7-ethyl-6-oxo-5H-1,5-naphthyridin-3-yl)methyl]-2-methylazetidin-3-yl]oxy}-N-methylpyridine-2-carboxamide] was tested, and the EC50 [1] was > 1000 nM and the EC50 [2] was > 1000 nM.
With `CCc1cc2ncc(CN3C[C@H](Oc4ccc(F)cc4C#N)[C@H]3C)cc2[nH]c1=O` [Example 65] the EC50 [1] was 93 nM and the EC50 [2] was 91 nM.
`CCNC(=O)c1ccc(O[C@H]2CN(Cc3cnc4cc(CC)c(=O)[nH]c4c3)[C@@H]2C)cn1` [Example 67] gave an EC50 [1] of 0.97 nM and an EC50 [2] of 0.65 nM.
Work on `CCc1cc2ncc(CN3C[C@H](Oc4ccc(C#N)c(F)c4)[C@H]3C)cc2[nH]c1=O` [Example 68] yielded an EC50 [1] of 15 nM and an EC50 [2] of 18 nM.
Work on `CCc1cc2ncc(CN3C[C@H](Oc4ccc(C#N)cc4F)[C@H]3C)cc2[nH]c1=O` [Example 69] yielded an EC50 [1] of 11 nM and an EC50 [2] of 5.6 nM.
`[2H]C([2H])(c1cnc2cc(CC)c(=O)[nH]c2c1)N1C[C@H](Oc2ccc(C(=O)NC3CC3)nc2)[C@H]1C` [Example 71] showed an EC50 [1] of 0.89 nM and an EC50 [2] of 0.49 nM.
With `CCc1cc2ncc(CN3C[C@H](Oc4ccc(C#N)cc4C#N)[C@H]3C)cc2[nH]c1=O` [Example 72] the EC50 [1] was 33 nM and the EC50 [2] was 50 nM.
`C[C@@H]1[C@@H](Oc2ccc(C#N)nc2)CN1Cc1cnc2cc(Cl)c(=O)[nH]c2c1` [Example 78] gave an EC50 [1] of 32 nM and an EC50 [2] of 35 nM.
With `CCc1cc2ncc(CN3C[C@H](Oc4ccc(C(=O)NC5CC5)nc4C#N)[C@H]3C)cc2[nH]c1=O` [Example 79] the EC50 [1] was 6.3 nM and the EC50 [2] was 1.9 nM.
Work on `Cc1cc2ncc(CN3C[C@H](Oc4ccc(C(=O)N[C@H]5C[C@@H](F)C5)nc4)[C@H]3C)cc2[nH]c1=O` [Example 81] yielded an EC50 [1] of 3 nM and an EC50 [2] of 1.7 nM.
Compound `CCc1cc2ncc(CN3C[C@H](n4ccc5nc(C#N)ccc54)[C@H]3C)cc2[nH]c1=O` [Example 83] has an EC50 [1] of 22 nM and an EC50 [2] of 11 nM.
For `Cc1cc2ncc(CN3C[C@H](Oc4ccc(C(=O)NC5CCC5)nc4)[C@H]3C)cc2[nH]c1=O` [Example 85], the EC50 [1] was 1.8 nM and the EC50 [2] was 1.3 nM.
`CCc1cc2ncc(CN3C[C@H](n4ccc5nc(C(=O)NC6CC6)ccc54)[C@H]3C)cc2[nH]c1=O` [Example 86] was tested, and the EC50 [1] was 3.4 nM and the EC50 [2] was 1.8 nM.
For `CNC(=O)c1ccc2c(ccn2[C@H]2CN(Cc3ccc4[nH]c(=O)c(C5CC5)cc4n3)[C@@H]2C)n1` [Example 87], the EC50 [1] was 20 nM and the EC50 [2] was 12 nM.
For `CCNC(=O)c1ccc2c(ccn2[C@H]2CN(Cc3cnc4cc(CC)c(=O)[nH]c4c3)[C@@H]2C)n1` [Example 88], the EC50 [1] was 6.3 nM and the EC50 [2] was 3.4 nM.
In the case of `C[C@@H]1[C@@H](Oc2ccc(C(=O)NC3CCC3)nc2)CN1Cc1cnc2cc(C(F)F)c(=O)[nH]c2c1` [Example 92], the EC50 [1] is reported as 1.6 nM and the EC50 [2] is reported as 1.1 nM.
`CCc1nc2ccc(CN3C[C@H](Oc4ccc(C(=O)NC)nc4)[C@H]3C)c(F)c2[nH]c1=O` [Example 93] was tested, and the EC50 [1] was 7.2 nM and the EC50 [2] was 5 nM.
`Cc1nc2ccc(CN3C[C@H](Oc4ccc(C(=O)NC5CC5)nc4)[C@H]3C)c(F)c2[nH]c1=O` [Example 94] was tested, and the EC50 [1] was 43 nM and the EC50 [2] was 11 nM.
For `CCc1nc2ccc(CN3C[C@H](Oc4ccc(C(=O)NC5CC5)nc4)[C@H]3C)c(F)c2[nH]c1=O` [Example 95], the EC50 [1] was 3.5 nM and the EC50 [2] was 3.2 nM.
`CNC(=O)c1ccc2c(ccn2[C@H]2CN(Cc3ccc4nc(C)c(=O)[nH]c4c3F)[C@@H]2C)n1` [Example 96] was tested, and the EC50 [1] was > 1000 nM and the EC50 [2] was > 1000 nM.
Work on `CNC(=O)c1ccc(O[C@H]2CN(Cc3ccc4nc(C5CC5)c(=O)[nH]c4c3F)[C@@H]2C)cn1` [Example 97] yielded an EC50 [1] of 34 nM and an EC50 [2] of 21 nM.
`CNC(=O)c1ccc(O[C@H]2CN(Cc3ccc4nc(C)c(=O)[nH]c4c3F)[C@@H]2C)c(F)n1` [Example 98] showed an EC50 [1] of 61 nM and an EC50 [2] of 29 nM.
`C[C@@H]1[C@@H](Oc2ccc(C(=O)NC3CC3)nc2)CN1Cc1ccc2cc(Cl)c(=O)[nH]c2c1F` [Example 99] gave an EC50 [1] of 4 nM and an EC50 [2] of 1.7 nM.
`CCc1nc2ccc(CN3C[C@H](Oc4ccc(C(=O)NC)nc4F)[C@H]3C)c(F)c2[nH]c1=O` [Example 100] gave an EC50 [1] of 11 nM and an EC50 [2] of 5.9 nM.
For `CCc1nc2ccc(CN3C[C@H](Oc4ccc(C(=O)NC5CC5)nc4F)[C@H]3C)c(F)c2[nH]c1=O` [Example 101], the EC50 [1] was 5.4 nM and the EC50 [2] was 3.1 nM.
With `CNC(=O)c1ccc(O[C@H]2CN(Cc3cc(F)c4nc(C)c(=O)[nH]c4c3F)[C@@H]2C)cn1` [Example 102] the EC50 [1] was 49 nM and the EC50 [2] was 110 nM.
In the case of `Cc1nc2ccc(CN3C[C@H](Oc4ccc(C(=O)NC5CC5)nc4F)[C@H]3C)c(F)c2[nH]c1=O` [Example 103], the EC50 [1] is reported as 27 nM and the EC50 [2] is reported as 30 nM.
In the case of `CCc1cc2ncc(CN3C[C@H](Oc4ccc(C(=O)NC5CC5)nc4F)[C@H]3C)cc2[nH]c1=O` [Example 104], the EC50 [1] is reported as 1.9 nM and the EC50 [2] is reported as 0.85 nM.
For `C[C@@H]1[C@@H](Oc2ccc(C(=O)NC3CC3)nc2F)CN1Cc1cnc2cc(Cl)c(=O)[nH]c2c1` [Example 105], the EC50 [1] was 2.2 nM and the EC50 [2] was 0.93 nM.
`CNC(=O)c1ccc(O[C@H]2CN(Cc3ccc4cc(Cl)c(=O)[nH]c4c3F)[C@@H]2C)cn1` [Example 106, 5-{[(2R,3S)-1-[(3-chloro-8-fluoro-2-oxo-1H-quinolin-7-yl)methyl]-2-methylazetidin-3-yl]oxy}-N-methylpyridine-2-carboxamide] gave an EC50 [1] of 8.3 nM and an EC50 [2] of 5 nM.
For `CCc1nc2c(F)cc(CN3C[C@H](Oc4ccc(C(=O)NC)nc4)[C@H]3C)c(F)c2[nH]c1=O` [Example 107], the EC50 [1] was 30 nM and the EC50 [2] was 17 nM.
Compound `CCc1cc2c(F)cc(CN3C[C@H](Oc4ccc(C(=O)NC)nc4)[C@H]3C)c(F)c2[nH]c1=O` [Example 108] has an EC50 [1] of 12 nM and an EC50 [2] of 12 nM.
